Legend:
mouse sarcoma S180 cells = experiment: Mouse sarcoma S180 metastasis model; conditions: 100 mg/kg/d, ip × 2qod
Description: (§1) human breast cancer Bcap-37 model, human lung cancer A549 model, human intestinal cancer LOVO model, human stomach cancer MGC model and human liver cancer QGY model, with tumor cell lines being of the second generation or more, mouse B16 melanoma cell line, mouse Lewis lung cancer model, mouse sarcoma s180 model, all passaged and preserved in Pharmacological Division of Shanghai Institute of Pharmaceutical Industry. 3. Experiment Animals Origins: nude mice, 6-week old, 18-22 g/mouse, provided by Laboratory Animal Center of Chinese Academy of Sciences, Shanghai Branch, with certification No. 2001A032. C57BL/6 mice and Kunming mice, 18-22 g/mouse, provided by Laboratory Animal Center of Chinese Academy of Sciences, Shanghai Branch, with certification SYXK (Shanghai) 2004-0015. Gender: male or female, the same gender for each batch in experiment Animal numbers: 10 mice and 10 nude mice for each of positive control group and test group in experiment, and 20 for negative control group. 4. Experiment Design Dose Settings: doses for 20(R)-ginsenoside Rg3 octo-acetate, 20(R)-ginsenoside Rg3 octo-n-butyrate and 20(R)-ginsenoside Rg3 octo-n-propionate were set as high-dose group (0.3 mg/kg/d), medium-dose group (0.06 mg/kg/d), and low-dose group (0.012 mg/kg/d). Dosage regimen: oral administration, twice daily. human tumor model and cell-inoculated mouse model: po×14 bid; mouse tumor-inoculated model: po×10 bid. Control Trial: negative control group: given with the same volume of 5% CMC-Na as the test group, and the same dosage regimen as the test group. positive control group: Cyclophosphamide CTX 30 mg/kg, MMC 2 mg/kg and 5Fu 30 mg/kg by intraperitoneal or intravenous administration, once daily, for seven consecutive days. 5. Experiment Method and Key Steps 5.1 Anti-Tumor Test 5.1.1 Subcutaneous Inoculation Model

[1] = system: human intestinal cancer LOVO cells; conditions: 100 mg/kg/d, ip × 2qod
Description: as §1, with “MMC 2 mg/kg and 5Fu 30 mg/kg by intraperitoneal or intravenous administration, once daily, for seven consecutive days.” left out
LOVO intestinal cancer cells (cultured in vitro) of logarithmic growth stage were taken under sterile condition and prepared into cell suspensions of about 1.8×10^7/ml using RPMI1640 culture medium as diluent. The nude mice were subjected to general anesthesia and cut in belly after routine disinfection to belly skin, the spleens were taken out and inoculated with LOVO intestinal cancer cell suspensions (0.05 ml/mouse) and then restored, the incisions were sutured, and the mice were placed in the cages and then put in the laminar flow rack.

[2] = system: human breast cancer Bcap-37 cells; experiment: Human breast cancer Bcap-37 subcutaneous inoculation in nude mice; conditions: 100 mg/kg/d, ip × 2qod
Description: as §1, with “Cyclophosphamide CTX 30 mg/kg, MMC 2 mg/kg and 5Fu 30 mg/kg by intraperitoneal or intravenous administration, once daily, for seven consecutive days.” left out
(§2) Tumor cells of vigorous growth stage were taken under sterile condition and made into cell suspensions of about 1-2×10^7/ml by homogenization, the suspensions were inoculated subcutaneously at 0.2 ml/mouse in host mice and repeated on the next day according to the experiment design, the animals in each group were slaughtered after about three weeks, the tumors were collected and weighed, and the tumor inhibition rates were calculated according to the following equation: tumor inhibition rate %=[(average tumor weight of control group-average tumor weight of treatment group)/average tumor weight of control group]×100%
The same operation was repeated in human tumor xenograft model, except that the feed, packing, cage and contact instruments were all sterilized under high pressure before use and the nude mice were fed in a laminar flow rack. The tumors and tumor-bearing animal weight gains were dynamically measured (tumor size measured using caliper: long diameter/a, short diameter/b, and tumor bulk=a×b^2/2).

mouse Lewis lung cancer [3] = experiment: Mouse Lewis lung cancer (subcutaneous inoculation) metastasis model; conditions: 100 mg/kg/d, ip × 2qod
Description: as §1, §2

[4] = system: human liver cancer QGY cells; experiment: Human liver cancer QGY liver in-situ inoculation, survival; conditions: 100 mg/kg/d, ip × 2qod
Description: as §1
Under sterile condition, the in vivo passage of the second generation of QGY tumor source of vigorous growth stage was prepared into cell suspensions of about 1-2×10^7/ml by homogenization (1:6), and the homogenates were filtered using 100-mesh stainless steel screen, getting ready for use. The nude mice were disinfected routinely and anaesthetized and cut at the xiphoid in the middle of the abdominal cavity to expose the liver, the cell suspensions (0.05 ml) were injected into liver parenchyma using imported 28 ga ½ ml syringes, the abdominal cavity was closed and then sutured layer by layer. The nude mice were fed in the laminar flow rack, with all the feed, packing, cage and contact instruments being sterilized under high pressure before use.

mouse Lewis lung cancer [5] = experiment: Mouse Lewis lung cancer, toe subcutaneous inoculation, anti-tumor test; conditions: 100 mg/kg/d, ip × 14qod
Description: as §1, with “MMC 2 mg/kg and 5Fu 30 mg/kg by intraperitoneal or intravenous administration, once daily, for seven consecutive days.” left out
as §2

[6] = system: human lung cancer A549 cells; experiment: Human lung cancer A549 (subcutaneous inoculation) metastasis model; conditions: 100 mg/kg/d, ip × 2qod
[7] = system: human stomach cancer MGC cells; experiment: Human stomach cancer MGC in-situ inoculation, survival; conditions: 100 mg/kg/d, ip × 2qod
Description: as §1

mouse melanoma B16 cells = experiment: Mouse melanoma B16 tail vein inoculation, lung metastasis; conditions: 100 mg/kg/d, ip × 2qod
Description: as §1

[8] = cited from earlier work
[9] = Solubility of the isolated products; format: physicochemical

Structure (SMILES): O=P1(N(CCCl)CCCl)NCCCO1 (centres unmarked) [CTX, cyclophosphamide, reference compound]
- Animal body weight (g) Start (mouse sarcoma S180 cells): 20.2 g
- Animal body weight (g) end (mouse sarcoma S180 cells): 21.0 g
- Anti-metastasis rate % (mouse sarcoma S180 cells): 93.84%
- Lung clone numbers (mice) X ± SD (mouse sarcoma S180 cells): 0.18 ± 2.1
- Animal body weight (g) Start [1]: 19.5 g
- Animal body weight (g) end [1]: 21.1 g
- Average survival (d) X ± SD [1]: 29.36 ± 3.3 days
- Life extension rate T/C × % [1]: 214.91%
- Animal body weight (g) Start [2]: 20.4 g
- Animal body weight (g) end [2]: 22.0 g
- Tumor inhibition rate % [2]: 89.90%
- Tumor weight (g) X ± SD [2]: 0.130 ± 0.06 g
- Animal body weight (g) Start (mouse Lewis lung cancer [3]): 19.4 g
- Animal body weight (g) end (mouse Lewis lung cancer [3]): 21.0 g
- Anti-metastasis rate % (mouse Lewis lung cancer [3]): 82.12%
- Lung clone numbers (mice) X ± SD (mouse Lewis lung cancer [3]): 0.50 ± 0.09
- Animal body weight (g) Start [4]: 19.1 g
- Animal body weight (g) end [4]: 21.0 g
- Average survival (d) X ± SD [4]: 37.23 ± 3.4 days
- Life extension rate T/C × % [4]: 159.44%
- Animal body weight (g) Start (mouse Lewis lung cancer [5]): 20.2 g
- Animal body weight (g) end (mouse Lewis lung cancer [5]): 21.9 g
- Tumor inhibition rate % (mouse Lewis lung cancer [5]): 93.92%
- Tumor-bearing toe weight (g) X ± SD (mouse Lewis lung cancer [5]): 0.0541 ± 0.02 g
- Animal body weight (g) Start [6]: 19.6 g
- Animal body weight (g) end [6]: 21.3 g
- Anti-metastasis rate % [6]: 85.10%
- Lung clone numbers (mice) X ± SD [6]: 0.29 ± 0.12
- Animal body weight (g) Start [7]: 19.5 g
- Animal body weight (g) end [7]: 21.1 g
- Average survival (d) X ± SD [7]: 41.22 ± 3.5 days
- Life extension rate T/C × % [7]: 181.01%
- Animal body weight (g) Start (mouse melanoma B16 cells): 20.1 g
- Animal body weight (g) end (mouse melanoma B16 cells): 21.4 g
- Anti-metastasis rate % (mouse melanoma B16 cells): 95.30%
- Lung clone numbers (mice) X ± SD (mouse melanoma B16 cells): 2.26 ± 2.8

Structure (SMILES): CC(C)=CCC[C@@](C)(O)[C@H]1CC[C@]2(C)[C@@H]1[C@H](O)C[C@@H]1[C@@]3(C)CC[C@H](O[C@@H]4O[C@H](CO)[C@@H](O)[C@H](O)[C@H]4O[C@@H]4O[C@H](CO)[C@@H](O)[C@H](O)[C@H]4O)C(C)(C)[C@@H]3CC[C@]12C [20 (R)-ginsenoside Rg3, 20 (R)-Ginsenoside Rg3]
- Solubility in low polarity or non-polar solvent ([8]; petroleum ether, chloroform and other low polarity or non-polar solvent): not soluble
- Solubility in pyridine, ethanol solution, strong acid and strong alkaline solutions ([8]; pyridine, ethanol solution (50%˜70%), strong acid aqueous solutions (pH<2), strong alkaline solutions (pH>10)): easily soluble
- Solubility in water and other high polarity solvents ([8]; water and other high polarity solvents): not soluble

Structure (SMILES): CCCCCC(=O)OC[C@H]1O[C@@H](OC2CC[C@]3(C)C(CC[C@@]4(C)C3C[C@H](OC(=O)CCCCC)C3C([C@@](C)(O)CCC=C(C)C)CC[C@@]34C)C2(C)C)[C@H](OC2O[C@H](COC(=O)CCCCC)[C@@H](OC(=O)CCCCC)[C@H](OC(=O)CCCCC)[C@H]2OC(=O)CCCCC)[C@@H](OC(=O)CCCCC)[C@@H]1OC(=O)CCCCC (stereo partly drawn) [20(R)-Ginsenoside Rg3 octo-n-hexanoate]
- Solubility in ethanol ([9]; ethanol): soluble
- Solubility in water ([9]; water): soluble

Source: patent US9969766B2, “20(R)-ginsenoside Rg3 polyacylated derivatives, preparation and application thereof” (priority 2014, dated 2018)
